According to patent publication US12428666B2, “Compositions and methods related to kethoxal derivatives” (The University of Chicago, priority 2018, dated 2025):
“Also recorded” adds a separate entry of the source.

Assays:
[1] = test system: mRNA secondary structures in live cells; assay: KARRI after translation inhibitor treatment; format: cell-based; conditions: 100 μg/mL cycloheximide or 3 μg/mL harringtonine, 37° C., 10 min
Experimental: KARRI is performed by: (1) Suspend live cells in 1% formaldehyde solution at 1×10^6/mL and incubate at room temperature for 10 min with gentle rotate. Then quench this reaction by adding glycine to a final concentration of 125 mM and rotate the mixture at room temperature for 5 min. For translation inhibitor treatment, cells were treated with 100 μg/mL cycloheximide or 3 μg/mL harringtonine at 37° C. for 10 min. (2) Collect and take 2×10^6 cells. Dilute N3-Kethoxal by 1:5 using DMSO. Make a labeling buffer by adding 10 μL N3-Kethoxal into 290 μL lysis buffer (10 mM Tris-HCl pH 8.0, 10 mM NaCl, 0.2 IGEPAL CA630) with 3 μL 100× proteinase inhibitor cocktail. (3) Suspend cells in labeling buffer and rotate at room temperature for 30 min, then centrifuge at 2500 g for 5 min at 4° C. to collect cells. (4) Wash cell pellets with 500 μL ice-cold lysis buffer for 3 times. (5) Suspend the pellet in 500 μL MeOH containing 10 μM dendrimers, rotate for 1 h at 37° C. Then centrifuge at 2500 g for 5 min at 4° C. to collect cells. (6) Wash cell pellet twice with 500 μL ice-cold lysis buffer. (7) Resuspend cells in 385 μL lysis buffer, add 50 μL 10% SDS, 30 μL proteinase K, 10 μL RNase inhibitor, 25 μL 500 mM K3BO3, shake at 65° C. for 2 h. (8) Add 500 μL phenol-chloroform to extract RNA and purify RNA by EtOH precipitation. […]

[2] = test system: Pol II; assay: ssDNA-seq after Pol II inhibitor treatment; format: cell-based, human; conditions: for ssDNA peak number: 2 h, control more than 43,000; for distribution of ssDNA-seq peaks on gene coding regions: after inhibitor treatment vs control
Experimental: N3-kethoxal enables genome-wide single-stranded DNA mapping (ssDNA-seq). Taking advantage of the sensitivity and the selectivity of N3-kethoxal towards single-stranded nucleic acids, the inventors first applied N3-kethoxal to map single-stranded regions of the genome, which has not been previously achieved. Human embryonic kidney (HEK) cells were cultured in N3-kethoxal-containing medium for 10 min to facilitate labelling before harvested. Genomic DNA was then purified and subjected to biotinylation reaction through “click” chemistry. Biotinylated DNA was purified and fragmented, followed by immunoprecipitation with streptavidin-coated beads. Enriched DNA and their corresponding inputs was used to make libraries, which were then sequenced and aligned.
ssDNA is performed by: (1) Prepare labeling medium by adding 5 μL pure N3-kethoxal to 5 mL pre-warmed cell culture medium for each 10 cm dish. (2) Incubate cells in the labeling medium for 10 min at 37° C., 5% CO2. (3) For transcription inhibition experiments, cells were treated for 2 h under 100 μM DRB or 1 μM triptolide before incubated in N3-kethoxal-containing medium. (4) Harvest cells after the 10 min incubation, isolate total DNA from cells by PureLink genomic DNA mini kit according to the manufacturer's protocol. (5) Suspend 5 μg total DNA in 85 μL H2O, then add 10 μL 10×PBS and 5 μL 20 mM DBCO-PEG4-biotin (DMSO solution), incubate the mixture at 37° C. for 2 h. (6) Add 5 μL RNase A to the reaction mixture, incubate the mixture at 37° C. for another 15 min. (7) Recover DNA from the reaction mixture by DNA Clean & Concentrator kit according to the manufacturer's protocol.

[3] = test system: guanine; assay: Reaction of N3-kethoxal with RNA nucleic bases and RNA oligos (HPLC, MALDI-TOF); format: biochemical; conditions: 12 mer RNA oligo with 4 guanines
Experimental: The reaction of N3-kethoxal and RNA was generally performed with the following protocol: 100 pmol RNA oligo and 1 μmol N3-kethoxal was incubated in total 10 μL solution in PBS buffer at 37° C. for 10 mins. […] The purified labelled RNA can be used for further studies such as mass spectrometry, gel electrophoresis and copper-free click reaction with biotin-DBCO.
MALDI-TOF-MS analysis of N3-kethoxal labelled RNA oligo. […] Meanwhile the buffer exchange occurred from PBS buffer to tris buffer that can be directly used in MALDI-TOF-MS experiment without extra desalt step. One microliter of product solution was mixed with one microliter matrix which include 8:1 volume ratio of 2′4′6′-trihydroxyacetophenone (THAP, 10 mg/mL in 50% CH3CN/H2O):ammonium citrate (50 mg/mL in H2O). Then the mixture was spotted on the MALDI sample plate, dried and analyzed by Bruker Ultraflextreme MALDI-TOF-TOF Mass Spectrometers.
The product of N3-kethoxal with for RNA nucleic bases was analyzed using LC-6AD (Shimadzu, Japan) HPLC instrument, which equipped with an Inertsil ODS-SP column ([…], 250×4.6 mm) (GL Science Inc. Japan). The phase A (100 mM TEAA buffer, pH=7.0) and phase B (CH3CN) were used as eluents with a flow rate of 1 mL/min at 35° C. (B conc.: 5-5-30%/0-5-30 min).

SMILES	effect on in vivo RNA secondary structures (KARRI) [1]	distribution of ssDNA-seq peaks on gene coding regions [2]	further results
C[C@@H]1C[C@@H]([C@H](O)CC2CC(=O)NC(=O)C2)C(=O)[C@@H](C)C1 [cycloheximide]	undermined in vivo-specific structures and increased in vitro features	–	–
OC[C@H]1O[C@@H](n2cnc3cc(Cl)c(Cl)cc32)[C@H](O)[C@@H]1O [DRB, 5,6-dichloro-1-β-D-ribofuranosylbenzimidazole]	–	Stronger peaks were observed at TSS while peaks on gene body and TES were eliminated	ssDNA peak number ([2]; 100 μM DRB): around 16,000
CC(C)[C@]12O[C@H]1[C@@H]1O[C@]13[C@]1(O[C@H]1C[C@H]1C4=C(CC[C@@]13C)C(=O)OC4)[C@@H]2O [Triptolide, triptolide]	–	most peaks on gene coding regions disappeared	ssDNA peak number ([2]; 1 μM triptolide): ~3,700
Cc1ncccc1C(=O)n1ccnc1 [NAI, reference compound]	–	–	labelling of RNA oligo (MALDI-TOF molecular weight of product) [3]: some oligoes were only reacted by one NAI and some were labelled by two or three
COC(=O)C[C@](O)(CCC(C)(C)O)C(=O)O[C@@H]1C(OC)=C[C@]23CCCN2CCc2cc4c(cc2[C@H]13)OCO4 [harringtonine]	undermined in vivo-specific structures and increased in vitro features; also recorded: in vivo-specific structures were undermined while some in vitro-specific features showed up	–	–
